Reference: PubChem BioAssay (NCI)
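Five concentrations, 48 hours, 96-well plates. TGI marks complete inhibition of growth.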

Columns and labels:
Assay in all cases: NCI anticancer screen, dose series, 48 h
[1] = test system: HCT-116 colon
[2] = test system: ACHN renal
[3] = test system: U251 CNS
[4] = test system: SK-OV-3 ovarian
[5] = test system: RXF 393 renal
[6] = test system: OVCAR-8 ovarian
[7] = test system: TK-10 renal
[8] = test system: 786-0 renal
[9] = test system: MALME-3M melanoma
[10] = test system: M14 melanoma

SMILES | TGI [1] | TGI [2] | TGI [3] | TGI [4] | TGI [5] | TGI [6] | TGI [7] | TGI [8] | TGI [9] | TGI [10]
S=C1C(=Nc2ccccc2)N(c2ccccc2)/C(=N\c2ccccn2)N1c1ccccc1 | 30.4 µM | 15.9 µM | 29.5 µM | 36 µM | 22.4 µM | 27.5 µM | 28.8 µM | 27.6 µM | 30.6 µM | 
O=C1OC2(C(F)(F)F)Oc3ccccc3CN2C12CCCCC2 (stereo not given) | 82.8 µM | 38.1 µM | 84.4 µM | 81.7 µM | 48.9 µM | > 100 µM | > 100 µM | > 100 µM | 53.2 µM | 66 µM
Nc1ccc(-c2nc3cc(F)ccc3s2)cc1I | 53 µM | 24.6 µM | 26.8 µM | 32.9 µM | 31.3 µM | 42.4 µM | 21.1 µM | 32 µM | 72.9 µM | > 100 µM
Cc1cc(=O)n2nc(CSc3nnc(N)s3)sc2n1 | > 100 µM | > 100 µM | > 100 µM | > 100 µM | > 100 µM | > 100 µM | > 100 µM | > 100 µM | > 100 µM | > 100 µM
CCOC(=O)/C(C#N)=C/c1ccc(CO)o1 | > 100 µM | > 100 µM | > 100 µM | > 100 µM | > 100 µM | > 100 µM | > 100 µM | > 100 µM | > 100 µM | > 100 µM
CCCC(CC)c1c(O)c(O)c(C(CC)CCC)c(C(CC)CCC)c1C(CC)CCC (stereo not given) | > 10 µM | > 10 µM | > 10 µM | > 10 µM | > 10 µM | > 10 µM | > 10 µM | > 10 µM | > 10 µM | > 10 µM
COC(=O)c1ccccc1C#CCCCOS(C)(=O)=O | > 10 µM | > 10 µM | > 10 µM | > 10 µM | > 10 µM | > 10 µM | > 10 µM | > 10 µM | > 10 µM | > 10 µM
CCOC(=O)C1=C(C)C(C(=O)OC)/C(=C/c2cccc3cccnc23)C1=O (stereo not given) | > 10 µM | > 10 µM | > 10 µM | > 10 µM | > 10 µM | > 10 µM | > 10 µM | > 10 µM | > 10 µM | > 10 µM
O=c1[nH]c2cc3cccnc3c(Cl)c2nc1C(F)(F)F | > 100 µM | > 100 µM | > 100 µM | > 100 µM | > 100 µM | > 100 µM | > 100 µM | > 100 µM | > 100 µM | > 100 µM
COc1ccccc1NC(=S)N/N=C(/C)c1ccccn1 | 13.8 µM | 12.9 µM | > 100 µM | > 89.2 µM | 23.4 µM | > 100 µM | 58.9 µM | 5.17 µM | 16.7 µM | 2.54 µM
C=CCN(c1cc(OCc2ccccc2)c(NC(C)=O)cc1[N+](=O)[O-])S(C)(=O)=O | > 100 µM | > 100 µM |  | 38.7 µM | 40.3 µM | 50.3 µM | > 100 µM | 49.2 µM | 73.2 µM | > 100 µM
COc1ccc(C(=C(I)c2ccccc2)c2ccc(OC)cc2)cc1 | > 100 µM | > 100 µM | > 100 µM | > 100 µM | > 100 µM | > 100 µM | > 100 µM | > 100 µM | > 100 µM | > 100 µM
O=C1C=C2CO[C@H]3OC[C@H](O)[C@@H]1[C@@H]23 | > 100 µM | > 100 µM | 63.6 µM | > 100 µM | 42 µM | > 100 µM | > 100 µM | > 100 µM | 55 µM | > 100 µM
Cc1ccc(C)c(COCCOCn2cc(Br)c(N)nc2=O)c1 | > 100 µM | > 100 µM | > 100 µM | > 100 µM | > 100 µM | > 100 µM | > 100 µM | > 100 µM | > 100 µM | > 100 µM
C=C1C(=O)O[C@H]2C/C(C)=C/CC/C(C)=C/CC[C@@](C)(O)[C@@H](I)C[C@@H]12 | 12.3 µM | 21.5 µM | 33.4 µM | 29.8 µM | 13.2 µM | 5.74 µM | 23.6 µM | 10.6 µM | 22.3 µM | 24.8 µM
Cc1cc2ccccc2n1CC(=O)N1CCCC1 | > 100 µM | > 100 µM | > 100 µM | > 100 µM | > 100 µM | > 100 µM | > 100 µM | > 100 µM | > 100 µM | > 100 µM
Cc1ccc(-n2c(O)c3c(N)n[nH]c3c(C#N)c2=O)cc1 | > 100 µM |  | > 100 µM | > 100 µM | > 100 µM | > 100 µM | > 100 µM | > 100 µM | > 100 µM | > 100 µM
C=C(CC(=O)Nc1ccc(C(=O)OC)o1)C(=O)OC | 76.7 µM | 34.6 µM | > 100 µM | 86.3 µM | 33.3 µM | > 100 µM | 46.1 µM | 39.6 µM | 39.3 µM | 36.1 µM
COCN1CCN=c2c1c1c3c(c4ccccc4n23)CCC1 | > 100 µM | > 100 µM | > 100 µM | > 100 µM | > 100 µM | > 100 µM | > 100 µM | > 100 µM | > 100 µM | > 100 µM
Cc1cc(Nc2ccc(N=Nc3ccc(O)c4ncccc34)cc2)nc(C)n1 | 44.6 µM | > 77.9 µM | 33.4 µM | > 72.7 µM | 34.6 µM | 48.3 µM | 50.2 µM | 54.2 µM | 44.6 µM | 36.1 µM
O=c1c2ccccc2n2nnc3ccc(NCCCNCCNCCCNc4ccc5nnn6c7ccccc7c(=O)c4c56)c1c32 | > 38.5 µM | > 18 µM |  | > 41.2 µM | 22.6 µM | > 20.2 µM | 19 µM | 21.3 µM | > 50 µM | > 30 µM
Cn1c(-c2ccc[se]2)ccc1-c1ccc(CO)[se]1 | > 100 µM | > 71.5 µM | 15.8 µM | 42.5 µM | 6.26 µM | > 100 µM |  | > 100 µM | 40.4 µM | > 100 µM
